# Data from patent US8927538B2, “Carbazole linked pyrrolo[2,1-c][1,4]benzodiazefine hybrids as potential anticancer agents and process for the preparation thereof” (Council of Scientific & Industrial Research, priority 2010, dated 2015).
# Key:
# [1] = system: sixty human tumour cell lines derived from nine cancer types; experiment: NCI in vitro cytotoxicity screen (SRB), sixty cell lines; format: cell-based; conditions: for GI50: 48 hrs continuous drug exposure, SRB, read-out: GI50 against sixty cell lines in nine cancer cell panels; for in vitro cytotoxicity: sixty cell lines from nine human cancer types
# Description: (§1) The C8-linked carbazole-PBD hybrids have been tested against sixty human tumour cell lines derived from nine cancer types (leukemia, non-small cell lung cancer, colon cancer, CNS cancer, melanoma, ovarian cancer, renal cancer, prostate cancer and breast cancer) as per NCI protocol, For each compound, dose response curves for individual cell lines have been measured at a minimum of five concentrations at 10 fold dilutions. A protocol of 48 hrs continuous drug exposure has been used, and a sulforhodamine B (SRB) protein assay was used to estimate cell viability or growth. The concentration for 50% cell growth inhibition (GI50), total cell growth inhibition (TGI, 0% growth) and 50% cell death (LC50, […]) compared with the control has been calculated (Table-3).
# (§2) Compounds 6c and 14a have been evaluated for in vitro cytotoxicity in sixty cell lines from nine human cancer types of lung (Hop-62, NCI-H226, NCI-H522), leukemia (K-562, SR), colon (HCT-116, HCT-15, HCC-2998), CNS(SF-539), melanoma (SK-MEL-5, UACC-62, M14), ovarian (IGROV1), renal (A498), prostate (PC3) breast (BT-549, MDA-MB-435, HS578T) origin. The results are expressed as percent of cell growth determined relative to that of untreated control cells (Table 1).
# [2] = system: Non small cell lung cancer cell lines; experiment: NCI SRB cytotoxicity, non-small cell lung panel; format: cell-based, human; conditions: average of six to eight cell lines
# Description: as §1, §2
# [3] = system: Melanoma cancer cell lines; experiment: NCI SRB cytotoxicity, melanoma panel; format: cell-based, human; conditions: average of six to eight cell lines
# Description: as §1, §2
# [4] = system: ovarian cancer cell lines; experiment: NCI SRB cytotoxicity, ovarian panel; format: cell-based, human; conditions: average of six to eight cell lines
# Description: as §1, §2
# [5] = system: Renal cancer cell lines; experiment: NCI SRB cytotoxicity, renal panel; format: cell-based, human; conditions: average of six to eight cell lines
# Description: as §1, §2
# [6] = system: prostate cancer cell lines; experiment: NCI SRB cytotoxicity, prostate panel; format: cell-based, human; conditions: average of cell lines
# Description: as §1, §2
# [7] = system: breast cancer cell lines; experiment: NCI SRB cytotoxicity, breast panel; format: cell-based, human; conditions: average of six to eight cell lines
# Description: as §1, §2
# [8] = system: CCRF-CEM; experiment: NCI SRB cytotoxicity, CCRF-CEM; format: cell-based, human; conditions: Leukemia CCRF-CEM, 48 hrs exposure
# Description: as §1, §2
# [9] = system: HL-60(TB); experiment: NCI SRB cytotoxicity, HL-60(TB); format: cell-based, human; conditions: Leukemia HL-60(TB), 48 hrs exposure
# Description: as §1, §2
# [10] = system: EKVX; experiment: NCI SRB cytotoxicity, EKVX; format: cell-based, human; conditions: Non-small cell lung EKVX, 48 hrs exposure
# Description: as §1, §2
# [11] = system: HOP-62; experiment: NCI SRB cytotoxicity, HOP-62; format: cell-based, human; conditions: Non-small cell lung HOP-62, 48 hrs exposure
# Description: as §1, §2
# [12] = system: COLO 205; experiment: NCI SRB cytotoxicity, COLO 205; format: cell-based, human; conditions: Colon COLO 205, 48 hrs exposure
# Description: as §1, §2
# [13] = system: HCC-2998; experiment: NCI SRB cytotoxicity, HCC-2998; format: cell-based, human; conditions: Colon HCC-2998, 48 hrs exposure
# Description: as §1, §2
# [14] = system: HCT-116; experiment: NCI SRB cytotoxicity, HCT-116; format: cell-based, human; conditions: Colon HCT-116, 48 hrs exposure
# Description: as §1, §2
# [15] = system: HCT-15; experiment: NCI SRB cytotoxicity, HCT-15; format: cell-based, human; conditions: Colon HCT-15, 48 hrs exposure
# Description: as §1, §2
# [16] = system: SF-539; experiment: NCI SRB cytotoxicity, SF-539; format: cell-based, human; conditions: CNS SF-539, 48 hrs exposure
# Description: as §1, §2
# [17] = system: SNB-19; experiment: NCI SRB cytotoxicity, SNB-19; format: cell-based, human; conditions: CNS SNB-19, 48 hrs exposure
# Description: as §1, §2
# [18] = system: SNB-75; experiment: NCI SRB cytotoxicity, SNB-75; format: cell-based, human; conditions: CNS SNB-75, 48 hrs exposure
# Description: as §1, §2
# [19] = system: MALME-3M; experiment: NCI SRB cytotoxicity, MALME-3M; format: cell-based, human; conditions: Melanoma MALME-3M, 48 hrs exposure
# Description: as §1, §2
# [20] = system: SK-MEL-2; experiment: NCI SRB cytotoxicity, SK-MEL-2; format: cell-based, human; conditions: Melanoma SK-MEL-2, 48 hrs exposure
# Description: as §1, §2
# [21] = system: SK-MEL-28; experiment: NCI SRB cytotoxicity, SK-MEL-28; format: cell-based, human; conditions: Melanoma SK-MEL-28, 48 hrs exposure
# Description: as §1, §2
# [22] = system: UACC-257; experiment: NCI SRB cytotoxicity, UACC-257; format: cell-based, human; conditions: Melanoma UACC-257, 48 hrs exposure
# Description: as §1, §2
# [23] = system: UACC-62; experiment: NCI SRB cytotoxicity, UACC-62; format: cell-based, human; conditions: Melanoma UACC-62, 48 hrs exposure
# Description: as §1, §2
# [24] = system: IGROV1; experiment: NCI SRB cytotoxicity, IGROV1; format: cell-based, human; conditions: Ovarian IGROV1, 48 hrs exposure
# Description: as §1, §2
# [25] = system: OVCAR-3; experiment: NCI SRB cytotoxicity, OVCAR-3; format: cell-based, human; conditions: Ovarian OVCAR-3, 48 hrs exposure
# Description: as §1, §2
# [26] = system: OVCAR-4; experiment: NCI SRB cytotoxicity, OVCAR-4; format: cell-based, human; conditions: Ovarian OVCAR-4, 48 hrs exposure
# Description: as §1, §2
# [27] = system: 786-0; experiment: NCI SRB cytotoxicity, 786-0; format: cell-based, human; conditions: Renal 786-0, 48 hrs exposure
# Description: as §1, §2
# [28] = system: A498; experiment: NCI SRB cytotoxicity, A498; format: cell-based, human; conditions: Renal A498, 48 hrs exposure
# Description: as §1, §2
# [29] = system: ACHN; experiment: NCI SRB cytotoxicity, ACHN; format: cell-based, human; conditions: Renal ACHN, 48 hrs exposure
# Description: as §1, §2
# [30] = system: CAKI-1; experiment: NCI SRB cytotoxicity, CAKI-1; format: cell-based, human; conditions: Renal CAKI-1, 48 hrs exposure
# Description: as §1, §2
# [31] = system: RXF 393; experiment: NCI SRB cytotoxicity, RXF 393; format: cell-based, human; conditions: Renal RXF 393, 48 hrs exposure
# Description: as §1, §2
# [32] = system: MDA-MB-; experiment: NCI SRB cytotoxicity, MDA-MB-; format: cell-based, human; conditions: Breast MDA-MB-, 48 hrs exposure
# Description: as §1, §2
# [33] = system: HS 578T; experiment: NCI SRB cytotoxicity, HS 578T; format: cell-based, human; conditions: Breast HS 578T, 48 hrs exposure
# Description: as §1, §2
# [34] = system: MDA-MB-435; experiment: NCI SRB cytotoxicity, MDA-MB-435; format: cell-based, human; conditions: Breast MDA-MB-435, 48 hrs exposure
# Description: as §1, §2
# [35] = against nine human tumor cell lines
compound,measurement,setting,value
"COc1cc2c(cc1OCCCCCn1c3ccccc3c3ccccc31)N=C[C@@H]1CCCN1C2=O [Compound 6c, 7-Methoxy-8-[5-(9H-9-carbazoly)pentyloxy]-(11aS)-1,2,3,11a-tetrahydro-5H-Pyrrolo[2,1-c][1,4]benzodiazepin-5-one]",GI50,[1],1030 nM
same,log10 GI50 mean graph midpoint value,[1]; [35],−5.67 mol/lit
same,log10 LC50 mean graph midpoint value,[1]; [35],−4.67 mol/lit
same,log10 TGI mean graph midpoint value,[1]; [35],−5.29 mol/lit
same,Log10 GI50 mean graph midpoint (MG_MID),[1]; human tumour cell lines,−5.67
same,Log10 LC50 mean graph midpoint (MG_MID),[1]; human tumour cell lines,−4.67
same,Log10 TGI mean graph midpoint (MG_MID),[1]; human tumour cell lines,−5.29
same,in vitro cytotoxicity,[1],significant cytotoxicity against some cancer cell lines
same,Log10 GI50,[2],−5.64 mol/L
same,Log10 LC50 (concentration causing 50% lethality),[2],−4.78 mol/L
same,Log10 GI50,[3],−5.71 mol/L
same,Log10 LC50 (concentration causing 50% lethality),[3],−4.74 mol/L
same,Log10 GI50,[4],−5.57 mol/L
same,Log10 LC50 (concentration causing 50% lethality),[4],−4.59 mol/L
same,Log10 LC50 (concentration causing 50% lethality),[5],−4.99 mol/L
same,Log10 GI50,[6],−5.64 mol/L
same,Log10 LC50 (concentration causing 50% lethality),[6],−4.50 mol/L
same,Log10 GI50,[7],−5.67 mol/L
same,Log10 LC50 (concentration causing 50% lethality),[7],−4.47 mol/L
same,GI50,[8],1970 nM
same,GI50,[9],1720 nM
same,GI50,[10],5270 nM
same,GI50,[11],1800 nM
same,GI50,[12],2110 nM
same,GI50,[13],1710 nM
same,GI50,[14],1650 nM
same,GI50,[15],1670 nM
same,GI50,[16],1850 nM
same,GI50,[17],2050 nM
same,GI50,[18],1050 nM
same,GI50,[19],2200 nM
same,GI50,[20],1670 nM
same,GI50,[21],1800 nM
same,GI50,[22],2290 nM
same,GI50,[23],1860 nM
same,GI50,[24],2080 nM
same,GI50,[25],1880 nM
same,GI50,[26],3090 nM
same,GI50,[27],1730 nM
same,GI50,[28],1770 nM
same,GI50,[29],1740 nM
same,GI50,[30],1930 nM
same,GI50,[31],4340 nM
same,GI50,[32],2140 nM
same,GI50,[33],1970 nM
same,GI50,[34],1730 nM
COc1cc2c(cc1OCCCN1CCN(CCCn3c4ccccc4c4ccccc43)CC1)N=C[C@@H]1CCCN1C2=O [Compound 14a],GI50,[1],< 10 nM
same,activity of 14a compared with 6c,[1]; GI50 comparison,ten folds higher activity than 6c
same,Log10 TGI mean graph midpoint (MG_MID),[1]; human tumour cell lines,−6.24
same,in vitro cytotoxicity,[1],significant cytotoxicity against some cancer cell lines
same,Log10 GI50,[2],−6.96 mol/L
same,Log10 LC50 (concentration causing 50% lethality),[2],−5.62 mol/L
same,Log10 GI50,[3],−6.91 mol/L
same,Log10 LC50 (concentration causing 50% lethality),[3],−6.06 mol/L
same,Log10 GI50,[4],−7.22 mol/L
same,Log10 LC50 (concentration causing 50% lethality),[4],−5.80 mol/L
same,Log10 GI50,[5],−6.72 mol/L
same,Log10 LC50 (concentration causing 50% lethality),[5],−5.61 mol/L
same,Log10 GI50,[6],−7.42 mol/L
same,Log10 LC50 (concentration causing 50% lethality),[6],−5.59 mol/L
same,Log10 GI50,[7],−6.96 mol/L
same,Log10 LC50 (concentration causing 50% lethality),[7],−5.59 mol/L
same,GI50,[8],20 nM
same,GI50,[9],30 nM
same,GI50,[10],140 nM
same,GI50,[11],80 nM
same,GI50,[12],70 nM
same,GI50,[13],130 nM
same,GI50,[14],60 nM
same,GI50,[15],280 nM
same,GI50,[16],120 nM
same,GI50,[17],210 nM
same,GI50,[18],150 nM
same,GI50,[19],150 nM
same,GI50,[20],190 nM
same,GI50,[21],60 nM
same,GI50,[22],150 nM
same,GI50,[23],150 nM
same,GI50,[24],< 10 nM
same,GI50,[25],69 nM
same,GI50,[26],100 nM
same,GI50,[27],190 nM
same,GI50,[28],170 nM
same,GI50,[29],250 nM
same,GI50,[30],120 nM
same,GI50,[31],220 nM
same,GI50,[32],950 nM
same,GI50,[33],160 nM
same,GI50,[34],< 10 nM
